Assay results taken from patent publication US10668027B1, “Method of treating Acanthamoeba infection using allopurinol” (University of South Florida, priority 2014, dated 2020).
Read-outs that look alike come from different tables or passages of the source.

Assays:
[1] = biological target: T1, N. fowleri Nfa-1 hemerythrin (Naegleria fowleri, UniProt Q9NH76); experiment: biochemical
T1 construct: made in house; host or cells: E. coli
Source text: (§1) The N. fowleri Nfa-1 gene (360 bp, GenBank Accession No. AF230370) was amplified by PCR from genomic N. fowleri DNA using PCR primers that included the Nde1 and Sap1 restriction enzyme sites for subsequent cloning into the Nde1 and Sap1 sites of the bacterial expression vector pTwin1 (forward primer with Nde1 site underlined; ATG start codon is indicated in bold: SEQ ID NO: 1 5′-[…]-3′, reverse primer with Sap1 site underlined: SEQ ID NO: 2 5′-[…]-3′), which contained a thiol-inducible intein protease fused to a chitin-binding domain. Recombinant Nfa-1 protein was produced in E. coli and purified by chitin-agarose chromatography followed by cleavage and elution of the purified Nfa-1 protein by 40 mM dithiothreitol (DTT) and subsequent size-exclusion chromatography purification.
(§2) Enzymatic oxidase activity, kinetics and pharmacological drug inhibition assays of recombinant N. fowleri Nfa-1 hemerythrin were determined in vitro using NADH or NADPH as the substrate and electron donor and ferricyanide as electron acceptor. Various drugs and inhibitors specific for xanthine oxidase-like enzymes, NAD(P)H oxidases, or NADH peroxidase were included in the pharmacological inhibition assays.

[2] = system: Naegleria fowleri strain Nf69 (ATCC 30215); experiment: LDH cytotoxicity assay of N. fowleri amoebae co-cultured with CHO cells; settings: ATCC30215, CHO, 13 h, read-out: IC50, protection from N. fowleri cytotoxicity
Description: Naegleria fowleri strain Nf69 (ATCC 30215) was cultivated at about 33° C. in modified Nelson's medium (about 1 mM Na2HPO4, about 1 mM KH2PO4, about 2.05 mM NaCl, about 16.2 μM MgSO4, about 27.2 μM CaCl2), about 0.17 g/L DIFCO Liver infusion broth, about 9.4 mM glucose) supplemented with about 10% heat-inactivated fetal bovine serum. For cytotoxicity assays, Chinese hamster ovary (CHO) cells were grown at about 37° C. in DMEM medium supplemented with about 10% fetal bovine serum until cultures reached about 70-80% confluency. Subsequently cultures were infected with N. fowleri cells at a ratio of 1 N. fowleri amoeba per 5-10 CHO cells and co-cultivated overnight for about 13 hours at about 37° C. The cytotoxicity effect of N. fowleri amoebae on CHO cells was measured by an LDH-based cytotoxicity assay that quantifies the release of lactate dehydrogenase (LDH) from dead cells at 490 nm wavelength absorbance for calculation of amoeba-induced cytotoxicity to the mammalian host cells.
Cytotoxicity of Naegleria fowleri amoebae was measured with CHO cells co-cultured with N. fowleri for about 13 hours at about 37° C. using the LDH cytotoxicity assay (infection ratio of 1 amoeba cell per 5-10 CHO cells) as described above.

[3] = system: Acanthamoeba castellani (ATCC strain 50370); experiment: microbe, parasite or virus in culture; settings: Acanthamoeba castellanii, ATCC50370, CHO, 19 h, read-out: IC50, protection against A. castellani cytotoxicity
[4] = biological target: T1, N. fowleri Nfa-1 hemerythrin; experiment: Initial-rate enzyme kinetics of Nfa-1 hemerythrin using NADH or NADPH as substrates; assay type: biochemical; settings: substrate 10-200 μM, ferricyanide 200 μM, 40 sec at 23° C., Michaelis-Menten analysis; for Km: read-out: apparent Km
Source text: as §1, §2
Enzyme kinetics were determined using NADH or NADPH at 10-200 μM concentration as electron donor and ferricyanide (200 μM) as electron acceptor for initial-rate enzyme kinetics of 40 sec at 23° C.

[5] = recombinant N. fowleri Nfa-1 oxidase in vitro, read-out: Ki, inhibition of Nfa-1 enzyme activity

T1 sequence (Q9NH76 whole entry): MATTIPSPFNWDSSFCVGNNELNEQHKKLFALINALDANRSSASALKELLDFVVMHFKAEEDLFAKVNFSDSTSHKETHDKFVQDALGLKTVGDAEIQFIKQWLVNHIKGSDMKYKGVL

Structure (SMILES)	Ki [1, 5] [µM]	IC50 [2] [µM]	Ki [1] [µM]	other results
O=[N+]([O-])[O-].[Ag+] [AgNO3]	345			
Oc1ncnc2[nH]ncc12 [Allopurinol]	134	48		IC50 [3]: 620 µM
COc1cc(C(C)=O)ccc1O [Apocynin]	17	15		IC50 [3]: 174 µM
c1ccc2c(c1)[I+]c1ccccc1-2 [DPI, diphenyleneiodonium chloride]		49	19	
OO [Formula H2O2, H2O2]				stimulation of Nfa-1 enzyme activity ([1]; NADH peroxidase activator, FIG. 9): 9.7%
NC(=O)C1=CN([C@@H]2O[C@H](COP(=O)(O)OP(=O)(O)OC[C@H]3O[C@@H](n4cnc5c(N)ncnc54)[C@H](O)[C@@H]3O)[C@@H](O)[C@H]2O)C=CC1 [NADH]				apparent kat [4]: 4.4 s⁻¹; Km [4]: 64.5 µM
NC(=O)C1=CN([C@@H]2O[C@H](COP(=O)(O)OP(=O)(O)OC[C@H]3O[C@@H](n4cnc5c(N)ncnc54)[C@H](OP(=O)(O)O)[C@@H]3O)[C@@H](O)[C@H]2O)C=CC1 [NADPH]				apparent kat [4]: 3.3 s⁻¹; Km [4]: 22.3 µM
O=c1[nH]cnc2nc[nH]c12 [hypoxanthine]		497	1000	
O=C(O)c1cc[c]([Hg][OH])cc1 [pHMB, para-hydroxymercuribenzoate]			78	
